Experiments:
[1] = Solubility observed when preparing samples for fluorescence measurement; assay type: physicochemical
Protocol: Gels were prepared from compounds 1 and 2 with cyclohexane (hereinafter referred to as cyclohexane gel(s)). The concentration of compound 1 or 2 in cyclohexane was adjusted to 5 mM. Chloroform solutions of compounds 1, 2 and 3 (5×10^−5 M) were also prepared. The fluorescence spectroscopic measurement was carried out for each gel. The excitation wavelength λex for the measurements was 340 nm.
As both compounds 1 and 2 were soluble in hot cyclohexane, solid samples were prepared by dissolving the compounds in cyclohexane followed by removing the solvent with a rotary evaporator at room temperature. Each of the solid samples thus prepared was then subjected to fluorescence spectroscopic measurement. As shown in FIG. 8 and FIG. 9, the difference in the spectra reflecting the difference in the gel was also observed in the solid state. Therefore, it was confirmed that the assembly structure of the gel is maintained even in the solid state.

[2] = Gelation test; assay type: physicochemical; parameters: key to gelation ability: I = insoluble; S = soluble; P = precipitate; G = gel; pG = partial gel; details: for gelation ability: 10 mM, 30 minutes at room temperature
Protocol: To a septum-capped test tube (i.d. 5 mm) were added compounds 1 or 2 and a solvent (100 μl) so that the concentration of the resultant solution was 10 mM and the solution was sonicated and heated with a heat gun until the solid was dissolved. After standing for 30 minutes at room temperature, the sample was turned upside down and judged visually. […] The samples with no observed gel formation were subjected to standing at a lower temperature for further judgment.

CCCCCCCCCCCCNC(=O)COc1cc2c3cc(OCC(=O)NCCCCCCCCCCCC)c(OCC(=O)NCCCCCCCCCCCC)cc3c3cc(OCC(=O)NCCCCCCCCCCCC)c(OCC(=O)NCCCCCCCCCCCC)cc3c2cc1OCC(=O)NCCCCCCCCCCCC [Compound 1]
solubility ([1]; hot cyclohexane): soluble | gelation ability ([2]; Benzene): S | gelation ability ([2]; Carbon tetrachloride): S | gelation ability ([2]; Chloroform): S | gelation ability ([2]; Cyclohexane): G | gelation ability ([2]; Diphenyl ether): S | gelation ability ([2]; Ethanol): I | gelation ability ([2]; Ethyl acetate): I | gelation ability ([2]; Hexane): G | gelation ability ([2]; Hexanol): P | gelation ability ([2]; Octane): G | gelation ability ([2]; Tetrahydrofuran): S | gelation ability ([2]; Toluene): S | gelation ability ([2]; p-Xylene): G

CCCCNC(=O)COc1cc2c3cc(OCC(=O)NCCCC)c(OCC(=O)NCCCC)cc3c3cc(OCC(=O)NCCCC)c(OCC(=O)NCCCC)cc3c2cc1OCC(=O)NCCCC [Compound 2]
solubility ([1]; hot cyclohexane): soluble | gelation ability ([2]; Benzene): P | gelation ability ([2]; Carbon tetrachloride): S | gelation ability ([2]; Chloroform): S | gelation ability ([2]; Cyclohexane): pG | gelation ability ([2]; Diphenyl ether): S | gelation ability ([2]; Ethanol): I | gelation ability ([2]; Ethyl acetate): I | gelation ability ([2]; Hexane): I | gelation ability ([2]; Hexanol): I | gelation ability ([2]; Octane): I | gelation ability ([2]; Tetrahydrofuran): P | gelation ability ([2]; Toluene): P | gelation ability ([2]; p-Xylene): P

CCCCCCCCCCCCOc1cc2c3cc(OCCCCCCCCCCCC)c(OCCCCCCCCCCCC)cc3c3cc(OCCCCCCCCCCCC)c(OCCCCCCCCCCCC)cc3c2cc1OCCCCCCCCCCCC [Compound 3, reference compound]
solubility ([1]; chloroform): soluble | solubility ([1]; cyclohexane): soluble | gelation ([2]; solvents not specified): no gelation was observed | solubility ([2]; solvents not specified): high solubility
